From BindingDB's records for patent US20230271949 (Ascletis Bioscience, 2023)
pEC50: −log10 of the molar value.

Target: Glucagon-like peptide 1 receptor (Homo sapiens, UniProt P43220)
Experiment: GLP-1R agonist cAMP stimulation Assay
Source text: cAMP Detection Kit, Cisbio (Cat #62AM4PEJ).

Sequence of Glucagon-like peptide 1 receptor (P43220 whole entry): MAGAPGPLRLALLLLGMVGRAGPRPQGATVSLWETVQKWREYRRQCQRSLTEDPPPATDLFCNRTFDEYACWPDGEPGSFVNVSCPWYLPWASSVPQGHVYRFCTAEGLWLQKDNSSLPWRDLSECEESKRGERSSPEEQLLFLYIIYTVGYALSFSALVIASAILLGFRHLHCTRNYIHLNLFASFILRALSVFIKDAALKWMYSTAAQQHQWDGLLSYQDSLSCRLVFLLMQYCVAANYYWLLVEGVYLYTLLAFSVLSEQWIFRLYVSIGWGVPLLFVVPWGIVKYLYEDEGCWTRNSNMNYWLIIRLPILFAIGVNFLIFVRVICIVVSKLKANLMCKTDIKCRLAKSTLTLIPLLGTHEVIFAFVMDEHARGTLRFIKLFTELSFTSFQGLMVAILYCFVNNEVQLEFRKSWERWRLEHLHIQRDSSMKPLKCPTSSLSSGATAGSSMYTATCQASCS

For `Cc1coc2c(COc3cccc(C4=CCN(Cc5nc6cc(C(=O)Nc7cc(F)c8c(c7)C7(CC7)C(=O)N8)ccc6n5C[C@@H]5CCO5)CC4)n3)ccc(C#N)c12` [US20230271949, Example 351], the pEC50 was 9.72.
